Consider 22 substances from US20180362993A1, “ELICITOR-DERIVED PEPTIDES AND USE THEREOF” (Plant Health Care, Inc., priority 2017, published 2018).

Marks after values point to notes of the source that are not given here.

One test relates to corn. In words: Drought resistance in seed-coated corn. In kind it is in vivo. To be noted: for % Change Dry Weight / % Change Fresh Weight: vs mock. On the procedure:
The effectiveness of peptide treatment in reducing the effects of drought stress was assessed in corn using a seed treatment strategy. This strategy largely mirrors example 2, except that the seeds were coated with a peptide formulation rather than a foliar spray application.
Seeds were first sieved using mesh screens to a uniform size (21-23/64 inches). The seeds were then coated with a mixture of peptide, Unicoat™ seed coat polymer, and a minimal volume of water in a Hege 11 Liquid Seed Treater (Wintersteiger) according to manufacturer recommendations. Seeds were coated with one of the following: (i) 0.12 μg peptide/seed, (ii) […], or (iii) a ‘mock’ treatment that included no peptide. The amount of peptide per seed assumes complete transfer of the peptide to seed surfaces in the seed coating chamber. Losses during coating were not considered.
(§1) 3.5 inch pots were filled (approximately 0.2 L per pot) with Sunshine #1 mix (SunGro Horticulture), fertilized with 14-14-14 N,P,K Osmocote (Everris), and mixed for 20 minutes using a soil mixer M-5. Seeds were planted at a depth of 0.5 inch for germination. The pots were immediately irrigated by submergence then drained after about an hour. For each treatment group, 24 replicate seeds were planted. Plants were grown in a greenhouse under 16 hour light days at ˜75° F. and 8 hour dark nights at ˜65° F. Prior to drought conditions, the plants were well-watered.
Three days after planting, the plants were randomized using a complete block design and subjected to a cyclic drought stress. Drought stress was imposed by withholding water for 2-3 days until the majority of plants were under medium to severe water stress. The severity of the stress was determined by the weight of the pot and visual determination of leaf curling. Once drought stress was attained, the pots were watered to full saturation. Full Saturation (100% pot capacity) is defined as the weight of the pot filled with water-saturated soil minus the weight of the filled pot prior to adding water. Drought stress was imposed for a total of 18 days.
At the end of the experiment (18 days after initiation of drought stress), the plant was then harvested for fresh and dry weights. Individual plants were cut near the soil surface and weighed immediately (fresh weight). The plants were then placed into labeled brown paper bags and dried in a 70° C. oven for 72 hours. A dry weight was then obtained.
The following calculation was performed on the collected data: Fresh weight at harvest and dry weight at harvest for the plants grown from peptide-treated seeds were expressed as a % change relative to the ‘mock’ treated plants.

The test system of the next test is soy. The test is described as follows: Drought resistance in seed-treated soy. In kind it is in vivo. To be noted: for % Change Dry Weight / % Change Fresh Weight: vs mock; for Result in the seed treated drought study for soy, in words: soy seed treatment. As for the experimental part: The effectiveness of peptide treatment in reducing drought stress was assessed in soy using a seed treatment strategy. This strategy largely mirrors examples 3 and 4.
Seeds were first sieved using mesh screens to a uniform size (14-17 mesh). The seeds were then coated with a mixture of peptide and Unicoat™ seed coat polymer in a Hege 11 Liquid Seed Treater (Wintersteiger) according to manufacturer recommendations. […]
as §1
Seven days after germination the heights of the plants were measured. This was determined as the distance between the soil surface and the shoot apical meristems (buds). The plants were randomized using a complete block design and subjected to a cyclic drought stress. Drought stress was imposed by withholding water for 3-4 days until the majority of plants were under medium to severe water stress. The severity of the stress was determined by the weight of the pot and visual determination of loss of turgor in the leaves (drooping). Once drought stress was attained, the pots were watered to full saturation. Full Saturation (100% pot capacity) is defined as the weight of the pot filled with water-saturated soil minus the weight of the filled pot prior to adding water. Drought stress was imposed for a total of 18 days.
At the end of the experiment (18 days after initiation of drought stress), the plant above the soil surface was then harvested for fresh and dry weights. Individual plants were cut near the soil surface and weighed immediately (fresh weight). The plants were then placed into labeled brown paper bags and dried in a 70° C. oven for 72 hours. A dry weight was then obtained. The following calculation was performed on the collected data: Fresh weight at harvest, and dry weight at harvest for the peptide-treated plants were expressed as a % change relative to the ‘mock’ treated plants.

Where [1] appears, read: corn seed treatment 1.05 μg/seed.
The mark [2] stands for this setting: corn seed treatment 0.12 μg/seed.

As to “P13-48: P13 peptide variant tested in corn seed treatment, SEQ ID NO: 70; sequence not printed in the text (AGQTSGMSPEEQLMKIFADITQSLFGDQDG; P13-48 peptide) [Peptide P13-48]”, in the test with corn (setting [1]), the “% Change Dry Weight” value is reported as −1.83% and the “% Change Fresh Weight” value is given as −1.65%.
As to “AGQTSGMSPMEELMKIFADITQSLFGDQDG (P13-45 peptide) [Peptide P13-45]”, the “% Change Dry Weight” value with corn (setting [2]) is recorded as 6.05* %; in the test with soy (soy seed treatment 0.9 μg/seed), 3.17%. For the same substance, the figures for the “% Change Fresh Weight” value with corn (setting [2]) and with soy (soy seed treatment 0.9 μg/seed) were 8.54** % and 3.6%, respectively.
As for “AGQTSGMSPMEQLMEIFADITQSLFGDQDR (P13-56 peptide) [Peptide P13-56]”, in the test with corn (setting [2]), the “% Change Dry Weight” value is 0.44% and the “% Change Fresh Weight” value came to 1.91%.
“AGQTSGMSPMEQLMKIFADITQSLFGDEDG (P13-44 peptide) [Peptide P13-44]”: the “% Change Dry Weight” value is given as 2.73% in the test on corn (setting [2]), 3.44% in the test on corn (setting [1]) and 10.93** % in the test on soy (soy seed treatment 0.1 μg/seed). Besides, the “% Change Fresh Weight” value in the test on corn (setting [2]) was 7.76** %; with corn (setting [1]) it was 9.15** %; in the test on soy (soy seed treatment 0.1 μg/seed), 10.54** %. Further, the “Result in the seed treated drought study for soy, in words” value (“Result in the seed treated drought study” for short) in the test with soy is “significant results”.
For “AGQTSGMSPMEQLMEIFADITQSLFGDR (P13-58 peptide) [Peptide P13-58]”, in the test on corn (setting [2]), the “% Change Dry Weight” value stood at 2.83% and the “% Change Fresh Weight” value was −4.07%.
Turning to “AGQTSGMSPMEQLMEIFADITQSLFGDQR (P13-57 peptide) [Peptide P13-57]”, in the test on corn (setting [1]), the “% Change Dry Weight” value is on record as −0.68% and the “% Change Fresh Weight” value was 1.90%.
For the substance “P13-53: P13 peptide variant tested in corn seed treatment, SEQ ID NO: 75; sequence not printed in the text (AGQTSGMSPMEQLMKIFADETQSLFGDQDG; P13-53 peptide) [Peptide P13-53]”, in the test on corn (setting [2]), the “% Change Dry Weight” value was 0.48% and the “% Change Fresh Weight” value is −2.19%.
For the substance “AGQTSGLSPLEQLLKIFADITQSLFG (P13-23 peptide) [Peptide P13-23]”, the “Drought tolerance activity in corn, result in words” value (“Drought tolerance activity in corn” for short) in the test on corn (corn seed treatment) is recorded as “affords activity”. For the same substance, the results for the “% Change Dry Weight” value in the test with corn (setting [2]), with corn (setting [1]) and in the test with soy (soy seed treatment 0.1 μg/seed) were 0.94%, 2.16% and 6.43%, respectively. The “% Change Fresh Weight” value with corn (setting [2]) is listed as 4.89** %; in the test with corn (setting [1]), 5.54** %; with soy (soy seed treatment 0.1 μg/seed), 5.08%.
For “P13-50: P13 peptide variant tested in corn seed treatment, SEQ ID NO: 72; sequence not printed in the text (AGQTSGMSPMEQLEKIFADITQSLFGDQDG; P13-50 peptide) [Peptide P13-50]”, in the test on corn (setting [2]), the “% Change Dry Weight” value was 0.49% and the “% Change Fresh Weight” value is on record as −3.95%.
On to “AGQTSGMSPMEQLMKIEADITQSLFGDQDG (P13-52 peptide) [Peptide P13-52]”, for which, in the test with corn (corn seed treatment), the “Result for dry weight, in words” value is “positive”. Besides, in the test on corn (setting [1]), the “% Change Dry Weight” value is recorded as 4.49** % and the “% Change Fresh Weight” value was −5.08* %.
Turning to “AGQTSGMSPMEQLMKLFADLTQSLFGDQDG (P13-30 peptide) [Peptide P13-30]”, the “Drought tolerance activity in corn” value with corn (corn seed treatment) is recorded as “positive”. Moreover, the “% Change Dry Weight” value is recorded as 3.01% with corn (setting [2]), 2.73% in the test with corn (setting [1]) and 6.17% in the test on soy (soy seed treatment 0.9 μg/seed). Further, the “% Change Fresh Weight” value in the test on corn (setting [2]) is 6.19* %; in the test on corn (setting [1]), 8.68** %; with soy (soy seed treatment 0.9 μg/seed) it was 9.41* %. In the test on soy, the “Result in the seed treated drought study” value is on record as “significant results”.
Take “P13-49: P13 peptide variant tested in corn seed treatment, SEQ ID NO: 71; sequence not printed in the text (AGQTSGMSPMEQEMKIFADITQSLFGDQDG; P13-49 peptide) [Peptide P13-49]”: in the test with corn (setting [2]), the “% Change Dry Weight” value is 0.79% and the “% Change Fresh Weight” value is −4.24%.
As to “AGQTSGMSPMEQLMEIFADITQSLFGDQDGR (P13-20 peptide) [Peptide P13-20]”, the “Drought tolerance activity in corn” value in the test with corn (corn seed treatment) is on record as “affords activity”. Also, in the test with corn (setting [1]), the “% Change Dry Weight” value turned out to be 3.23% and the “% Change Fresh Weight” value is on record as 6.87** %. Further, in the test with soy (soy seed treatment 0.1 μg/seed), the “% Change Dry Weight” value was −5.02% and the “% Change Fresh Weight” value is given as −5.86** %.
Take “P13-47: P13 peptide variant tested in corn seed treatment, SEQ ID NO: 69; sequence not printed in the text (AGQTSGESPMEQLMKIFADITQSLFGDQDG; P13-47 peptide) [Peptide P13-47]”: in the test with corn (setting [1]), the “% Change Dry Weight” value was −1.34% and the “% Change Fresh Weight” value is −3.42%.
As for “P13-51: P13 peptide variant tested in corn seed treatment, SEQ ID NO: 73; sequence not printed in the text (AGQTSGMSPMEQLMKEFADITQSLFGDQDG; P13-51 peptide) [Peptide P13-51]”, in the test with corn (setting [1]), the “% Change Dry Weight” value stood at 0.64% and the “% Change Fresh Weight” value is −4.70%.
As for “SQEEEMEPMEQLMEIFEEIEQELFG (P13-26 peptide) [Peptide P13-26]”, the “Drought tolerance activity in corn” value in the test with corn (corn seed treatment) is “preservation of activity”. Besides, the results for the “% Change Dry Weight” value in the test with corn (setting [2]), in the test on corn (setting [1]) and in the test on soy (soy seed treatment 0.1 μg/seed) were 4.74** %, 5.92** % and 3.40%, respectively. Besides, the “% Change Fresh Weight” value with corn (setting [2]) is listed as 3.77* %; in the test on corn (setting [1]), 4.23* %; in the test on soy (soy seed treatment 0.1 μg/seed), 2.04%.
With “LEELEELLEIFEEIEEELF (P13-35 peptide) [Peptide P13-35]”, in the test on corn (corn seed treatment), the “Drought tolerance activity in corn” value is on record as “preservation of activity”. In the test with corn (setting [2]), the “% Change Dry Weight” value was 5.68** % and the “% Change Fresh Weight” value turned out to be 2.45%. In the test on soy (soy seed treatment 0.1 μg/seed), the “% Change Dry Weight” value is 2.56% and the “% Change Fresh Weight” value stood at 1.55%.
Turning to “AGQTSGMSPMEQLMKIFADITQSLFGDQ (P13-17 peptide) [Peptide P13-17]”, the “% Change Dry Weight” value with corn (setting [1]) was 1.09%; in the test with soy (soy seed treatment 0.1 μg/seed) it was 9.48** %. For the same substance, the “% Change Fresh Weight” value is 1.51% with corn (setting [1]) and 8.02* % in the test with soy (soy seed treatment 0.1 μg/seed). Also, in the test on soy, the “Result in the seed treated drought study” value is listed as “significant results”.
On to “SQTSGMSPMEQLMEIFADITQSLF (P13-25 peptide) [Peptide P13-25]”, for which, in the test with corn (setting [1]), the “% Change Dry Weight” value is recorded as 3.01% and the “% Change Fresh Weight” value was 2.63%.
As to “P13-54: P13 peptide variant tested in corn seed treatment, SEQ ID NO: 76; sequence not printed in the text (AGQTSGMSPMEQLMKIFADITQSEFGDQDG; P13-54 peptide) [Peptide P13-54]”, in the test on corn (setting [2]), the “% Change Dry Weight” value is on record as −1.38% and the “% Change Fresh Weight” value is −4.51* %.
As for “P13-55: P13 peptide variant tested in corn seed treatment, SEQ ID NO: 77; sequence not printed in the text (AGQTSGMSPMEQLMKIFADITQSLEGDQDG; P13-55 peptide) [Peptide P13-55]”, in the test on corn (setting [2]), the “% Change Dry Weight” value was 0.81% and the “% Change Fresh Weight” value was −3.84%.
As for “AGQTSGMSPMEQLMKILADITQSLLGDQDG (P13-33 peptide) [Peptide P13-33]”, in the test with corn (corn seed treatment), the “Drought tolerance activity in corn” value was “negative”. In the test on corn (setting [1]), the “% Change Dry Weight” value was determined as 2.59% and the “% Change Fresh Weight” value is on record as −1.28%.
